Source: US20230072790A1, “COMPOUNDS AND FORMULATIONS FOR PROTECTIVE COATINGS” (Apeel Technology, Inc., priority 2021, published 2023)

Experiments:
unwaxed pixie oranges = experiment: Mass loss factor of coated unwaxed pixie oranges (Example 13); format: in vivo, orange; settings: 2 g/L sorbitan monolaurate added to 50 g/L 95/5 monostearate/sodium stearate, bowl dip, 70° C.
Description: (§1) As used herein, the term “mass loss factor” is defined as the ratio of the average mass loss rate of uncoated produce (measured for a control group) to the average mass loss rate of the corresponding tested produce (e.g., coated produce) over a given time.
FIG. 21 is a graph showing mass loss factors for unwaxed pixie oranges (“pixies”). One group of pixies was not treated. A second group of pixies was treated with 50 g/L of Treatment C. A third group of pixies was treated with 50 g/L of Treatment C and 2 g/L of a wetting agent (WAG). A fourth group of pixies was treated with 50 g/L of a 95/5 mixture of monostearate/sodium stearate and 2 g/L sorbitan monolaurate. The coatings were applied using a bowl dip method and were dried at a temperature of 70° C. […] The pixies were mostly dry (~80%) coming out of the heat tunnel.

[1] = X-ray scattering of thin-film coatings (Example 10); format: physicochemical; settings: 95 wt% sorbitan ester / 5 wt% sodium stearate; film cast from 30 g/L aqueous solution, dried 40° C. 4 hours
Source text: As used herein, “lamellar structure” refers to a structure comprising lamella(e) vertically stacked adjacent to each other and held together by intermolecular forces. As used herein, “lamella(e)” refers to one lamella or two or more lamellae, that is, one or more discrete layers of molecules, respectively. In some embodiments, the molecules present in the lamella(e) are ordered (e.g., aligned, as in an open bilayer). The distance between a surface of a lamella and a surface of an adjacent lamella that is facing the same direction is referred to herein as “interlayer spacing” or “periodic spacing”. Interlayer spacing between two lamellae is determined by (1) obtaining an out-of-plane X-ray scattering image of a coating, (2) determining the scattering vector (q) of the peak corresponding to the lamellar structure, and (3) using Bragg’s equation below, determine the interlayer spacing (d).
Coating agents were applied to the surface of a plastic substrate, which acts as a hydrophilic surface when exposed to air. An X-ray scattering image of the applied coat was obtained to identify characteristics of the coating.
Specifically, a coating agent of sorbitan monostearate (95 wt%) and sodium stearate (5 wt%) was applied to a substrate as a thin-film. The films were drop cast from a 30 g/L aqueous solution and dried at 40° C. for 4 hours. […] “LAM” refers to lamellar or bilayer morphology. […]

California avocados = experiment: Respiration factor of coated California avocados (Example 11); format: in vivo, avocado; settings: 30 g/L sorbitan ester
Source text: (§2) As used herein, the term “respiration rate” refers to the rate at which the product releases gas, such as CO2. This rate can be determined from the volume of gas (e.g., CO2) (at standard temperature and pressure) released per unit time per unit weight of the product. The respiration rate can be expressed as ml gas/kg·hour. The respiration rate of the product can be measured by placing the product in a closed container of known volume that is equipped with a sensor, such as a CO2 sensor, recording the gas concentration within the container as a function of time, and then calculating the rate of gas release required to obtain the measured concentration values.
(§3) As used herein, the term “respiration factor” is defined as the ratio of the average gas diffusion (e.g., CO2 release) of uncoated produce (measured for a control group) to the average gas diffusion of the corresponding tested produce (e.g., coated produce) over a given time.
FIG. 17 is a graph showing mass loss factors for California avocados. The Untreated group of avocadoes was not treated. A second group of avocados was treated with 15 g/L of Treatment C. A third group of avocados was treated with 30 g/L of Treatment C. A fourth group of avocados was treated with 30 g/L sorbitan monopalmitate (MP) (100 wt%). A fifth group of avocados was treated with a 30 g/L sorbitan monostearate (MS). […]

Mexican avocados [2] = experiment: Mass loss factor of coated Mexican avocados (Example 12); format: in vivo, avocado; settings: brush bed, dried 70° C., sorbitan monostearate as 94 wt% with 6 wt% sodium stearate
Description: as §1
FIG. 19 is a graph showing mass loss factors (MLF) for Mexican avocados. A first group of avocados was not treated. A second group of avocados was treated with 20 g/L of Treatment C. A third group of avocados was treated with 40 g/L of Treatment C. The monoglyceride coatings were mixed with a high shear mixer. A fourth group of avocados was treated with 20 g/L of a mixture of sorbitan monostearate (94 wt%) and sodium stearate (6 wt%). A fifth group of avocados was treated with 40 g/L of a mixture of sorbitan monostearate (94 wt%) and sodium stearate (6 wt%). The sorbitan monostearate coatings were mixed with blenders. The coatings were applied using a brush bed and were dried at a temperature of 70° C. […] The MLF of 20 g/L of […] monostearate/sodium stearate was 1.49 and the MLF of the 40 g/L 95/5 monostearate/sodium stearate was 2.24.

Mexican avocados [3] = experiment: Respiration factor of coated Mexican avocados (Example 12); format: in vivo, avocado; settings: day 1
Source text: as §2, §3
FIG. 19 is a graph showing mass loss factors (MLF) for Mexican avocados. A first group of avocados was not treated. A second group of avocados was treated with 20 g/L of Treatment C. A third group of avocados was treated with 40 g/L of Treatment C. The monoglyceride coatings were mixed with a high shear mixer. A fourth group of avocados was treated with 20 g/L of a mixture of sorbitan monostearate (94 wt%) and sodium stearate (6 wt%). […]

periodicity of alternating bilayers [1] [nm] | Substance | mass loss factor increase compared to the untreated substrates (unwaxed pixie oranges) [times] | respiration factor compared with 95/5 monostearate/sodium stearate at 30 g/L (California avocados) | MLF (mass loss factor) (Mexican avocados [2]; 20 g/L) | MLF (mass loss factor) (Mexican avocados [2]; 40 g/L) | RF (respiration factor) (Mexican avocados [3]; 20 g/L) | RF (respiration factor) (Mexican avocados [3]; 40 g/L)
 | sorbitan monolaurate | 3.56 |  |  |  |  | 
5.6 | sorbitan monopalmitate |  | higher |  |  |  | 
5.5 | sorbitan monostearate |  | comparable | 1.83 | 2.32 | 1.15 | 1.25
